This assay concerns the target Histone deacetylase 2 (Homo sapiens) (UniProt Q92769). Briefly: Inhibition of human recombinant HDAC2.
Histone deacetylase 2 (Homo sapiens), sequence (Q92769 whole entry, looked up): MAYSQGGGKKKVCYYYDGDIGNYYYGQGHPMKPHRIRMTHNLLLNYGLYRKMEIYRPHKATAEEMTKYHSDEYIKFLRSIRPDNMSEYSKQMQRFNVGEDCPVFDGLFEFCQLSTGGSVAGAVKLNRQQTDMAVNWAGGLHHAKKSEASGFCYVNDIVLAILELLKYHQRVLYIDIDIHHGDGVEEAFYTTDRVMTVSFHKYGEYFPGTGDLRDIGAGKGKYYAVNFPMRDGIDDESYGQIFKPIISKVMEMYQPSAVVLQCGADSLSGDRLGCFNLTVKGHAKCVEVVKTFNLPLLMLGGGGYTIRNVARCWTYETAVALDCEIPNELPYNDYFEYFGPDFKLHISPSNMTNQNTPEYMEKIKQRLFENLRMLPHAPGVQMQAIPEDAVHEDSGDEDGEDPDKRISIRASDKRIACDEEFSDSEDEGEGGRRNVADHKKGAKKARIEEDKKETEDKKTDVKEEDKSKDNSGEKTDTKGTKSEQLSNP
In general, IC50 refers to the point on the concentration scale where inhibition reaches its midpoint. Consider `CN1CCC[C@@H](n2c(-c3cccc(/C=C/C(=O)NO)c3)nc3ccccc32)C1` [(R)-N-hydroxy-3-(3-(1-(1-methylpiperidin-3-yl)-1H-benzo[d]imidazol-2-yl)phenyl)acrylamide], for which the IC50 worked out at 10 nM. `CC(C)N(CCn1c(-c2cccc(/C=C/C(=O)NO)c2)nc2ccccc21)C(C)C` [3-(3-(1-(2-(diisopropylamino)ethyl)-1H-benzo[d]imidazol-2-yl)phenyl)-N-hydroxyacrylamide]: the IC50 is 40 nM. In the case of `COc1ccc(-n2c(-c3cccc(/C=C/C(=O)NO)c3)nc3ccccc32)cc1` [N-hydroxy-3-(3-(1-(4-methoxyphenyl)-1H-benzo[d]imidazol-2-yl)phenyl)acrylamide], the IC50 is 40 nM. The result for `Cc1c(-c2ccccc2)nc(-c2cccc(/C=C/C(=O)NO)c2)n1CCN1CCOCC1` [N-hydroxy-3-(3-(5-methyl-1-(2-morpholinoethyl)-4-phenyl-1H-imidazol-2-yl)phenyl)acrylamide] reads 10 nM; that for `O=C(/C=C/c1cccc(-c2nc3ccccc3n2CCN2CCOCC2)c1)NO` [N-hydroxy-3-(3-(1-(2-morpholinoethyl)-1H-benzo[d]imidazol-2-yl)phenyl)acrylamide], 50 nM. Consider `CCN1CCC[C@@H](n2c(-c3cccc(/C=C/C(=O)NO)c3)nc(Cc3ccccc3)c2C)C1` [(R)-3-(3-(4-benzyl-1-(1-ethylpiperidin-3-yl)-5-methyl-1H-imidazol-2-yl)phenyl)-N-hydroxyacrylamide], for which the IC50 amounted to 10 nM.

In the case of `Cc1nc(-c2cccc(/C=C/C(=O)NO)c2)n(CCN2CCOCC2)c1-c1ccccc1` [N-hydroxy-3-(3-(4-methyl-1-(2-morpholinoethyl)-5-phenyl-1H-imidazol-2-yl)phenyl)acrylamide], the 50% inhibitory concentration (IC50) came out at 31 nM. For `CC(C)n1c(-c2cccc(/C=C/C(=O)NO)c2)nc2ccccc21` [N-hydroxy-3-(3-(1-isopropyl-1H-benzo[d]imidazol-2-yl)phenyl)acrylamide], the half-inhibitory concentration (IC50) turned out to be 79 nM. For the compound `CCN(CC)CCn1c(-c2cccc(/C=C/C(=O)NO)c2)nc2ccccc21` [3-(3-(1-(2-(diethylamino)ethyl)-1H-benzo[d]imidazol-2-yl)phenyl)-N-hydroxyacrylamide], the IC50 came out at 31 nM. `Cc1nc(-c2cccc(/C=C/C(=O)NO)c2)n([C@@H]2CCCN(C)C2)c1-c1ccccc1` [(R)-N-hydroxy-3-(3-(4-methyl-1-(1-methylpiperidin-3-yl)-5-phenyl-1H-imidazol-2-yl)phenyl)acrylamide]: the IC50 is 10 nM. In the case of `C[C@H](c1ccccc1)n1c(-c2cccc(/C=C/C(=O)NO)c2)nc2ccccc21` [(R)-N-hydroxy-3-(3-(1-(1-phenylethyl)-1H-benzo[d]imidazol-2-yl)phenyl)acrylamide], the 50% inhibitory concentration (IC50) stood at 25 nM. On to `O=C(/C=C/c1cccc(-c2nc3ccccc3n2CCCc2ccccc2)c1)NO` [N-hydroxy-3-(3-(1-(3-phenylpropyl)-1H-benzo[d]imidazol-2-yl)phenyl)acrylamide], for which the IC50 was 12 nM. Consider `Cn1c(-c2cccc(/C=C/C(=O)NO)c2)nc2ccccc21` [N-hydroxy-3-(3-(1-methyl-1H-benzo[d]imidazol-2-yl)phenyl)acrylamide], for which the concentration for half-maximal inhibition (IC50) was 120 nM. With `CCN1CCC[C@H](n2c(-c3cccc(/C=C/C(=O)NO)c3)nc3ccccc32)C1` [(S)-3-(3-(1-(1-ethylpiperidin-3-yl)-1H-benzo[d]imidazol-2-yl)phenyl)-N-hydroxyacrylamide], the IC50 was found to be 31 nM. Consider `O=C(/C=C/c1cccc(-c2nc3ccccc3n2CC2CCNCC2)c1)NO` [N-hydroxy-3-(3-(1-(piperidin-4-ylmethyl)-1H-benzo[d]imidazol-2-yl)phenyl)acrylamide], for which the IC50 was determined as 160 nM.

Turning to `O=C(/C=C/c1cccc(-c2nc3ccccc3n2[C@@H]2CCCNC2)c1)NO` [(R)-N-hydroxy-3-(3-(1-(piperidin-3-yl)-1H-benzo[d]imidazol-2-yl)phenyl)acrylamide], the IC50 amounted to 12 nM. As to `Cc1c(Cc2ccccc2)nc(-c2cccc(/C=C/C(=O)NO)c2)n1[C@@H]1CCCN(C)C1` [(R)-3-(3-(4-benzyl-5-methyl-1-(1-methylpiperidin-3-yl)-1H-imidazol-2-yl)phenyl)-N-hydroxyacrylamide], the IC50 came to 6.3 nM. The result for `Cc1c(Cc2ccccc2)nc(-c2cccc(/C=C/C(=O)NO)c2)n1CCc1ccccc1` [3-(3-(4-benzyl-5-methyl-1-phenethyl-1H-imidazol-2-yl)phenyl)-N-hydroxyacrylamide] reads 7.9 nM; that for `Cc1nc(-c2cccc(/C=C/C(=O)NO)c2)n([C@@H]2CCCN(C(C)C)C2)c1-c1ccccc1` [(R)-N-hydroxy-3-(3-(1-(1-isopropylpiperidin-3-yl)-4-methyl-5-phenyl-1H-imidazol-2-yl)phenyl)acrylamide], 6.3 nM. The result for `Cc1c(-c2ccccc2)nc(-c2cccc(/C=C/C(=O)NO)c2)n1[C@@H]1CCCN(C)C1` [(R)-N-hydroxy-3-(3-(5-methyl-1-(1-methylpiperidin-3-yl)-4-phenyl-1H-imidazol-2-yl)phenyl)acrylamide] reads 5 nM; that for `Cc1c(-c2ccccc2)nc(-c2cccc(/C=C/C(=O)NO)c2)n1CCc1ccccc1` [N-hydroxy-3-(3-(5-methyl-1-phenethyl-4-phenyl-1H-imidazol-2-yl)phenyl)acrylamide], 5 nM.

In the case of `Cc1nc(C)n(CCc2ccccc2)c1-c1cccc(/C=C/C(=O)NO)c1` [3-(3-(2,4-dimethyl-1-phenethyl-1H-imidazol-5-yl)phenyl)-N-hydroxyacrylamide], the IC50 stood at 79 nM.

Regarding `Cc1nc(-c2cccc(/C=C/C(=O)NO)c2)n(CCN2CCOCC2)c1Cc1ccccc1` [3-(3-(5-benzyl-4-methyl-1-(2-morpholinoethyl)-1H-imidazol-2-yl)phenyl)-N-hydroxyacrylamide], the IC50 was determined as 10 nM. For `Cc1nc(-c2cccc(/C=C/C(=O)NO)c2)n(CCc2ccccc2)c1Cc1ccccc1` [3-(3-(5-benzyl-4-methyl-1-phenethyl-1H-imidazol-2-yl)phenyl)-N-hydroxyacrylamide], the IC50 is 5 nM. For `O=C(/C=C/c1cccc(-c2nc3ccccc3[nH]2)c1)NO` [3-(3-(1H-benzo[d]imidazol-2-yl)phenyl)-N-hydroxyacrylamide], the IC50 was determined as 100 nM. Consider `CCN1CCC[C@@H](n2c(Cc3ccccc3)nc(C)c2-c2cccc(/C=C/C(=O)NO)c2)C1` [(R)-3-(3-(2-benzyl-1-(1-ethylpiperidin-3-yl)-4-methyl-1H-imidazol-5-yl)phenyl)-N-hydroxyacrylamide], for which the IC50 is 120 nM.

Turning to `O=C(/C=C/c1cccc(-c2nc3ccccc3n2-c2ccccc2)c1)NO` [N-hydroxy-3-(3-(1-phenyl-1H-benzo[d]imidazol-2-yl)phenyl)acrylamide], the IC50 turned out to be 63 nM. For `CCN1CCCC(n2c(-c3cccc(/C=C/C(=O)NO)c3)nc3ccccc32)C1` (racemic) [(+/-)-3-(3-(1-(1-ethylpiperidin-3-yl)-1H-benzo[d]imidazol-2-yl)phenyl)-N-hydroxyacrylamide] the value was 20 nM.

On to `O=C(/C=C/c1cccc(-c2nc3ccccc3n2CCN2CCCCC2)c1)NO` [N-hydroxy-3-(3-(1-(2-(piperidin-1-yl)ethyl)-1H-benzo[d]imidazol-2-yl)phenyl)acrylamide], for which the IC50 worked out at 10 nM. For the compound `O=C(/C=C/c1cccc(-c2nc3ccccc3n2CCN2CCCC2)c1)NO` [N-hydroxy-3-(3-(1-(2-(pyrrolidin-1-yl)ethyl)-1H-benzo[d]imidazol-2-yl)phenyl)acrylamide], the IC50 was determined as 16 nM. For `CCN1CCC[C@@H](n2c(-c3cccc(/C=C/C(=O)NO)c3)nc(C)c2C)C1` [(R)-3-(3-(1-(1-ethylpiperidin-3-yl)-4,5-dimethyl-1H-imidazol-2-yl)phenyl)-N-hydroxyacrylamide] the value was 12 nM; for `Cc1nc(-c2cccc(/C=C/C(=O)NO)c2)n(CCN2CCOCC2)c1C` [3-(3-(4,5-dimethyl-1-(2-morpholinoethyl)-1H-imidazol-2-yl)phenyl)-N-hydroxyacrylamide], 31 nM. For the compound `O=C(/C=C/c1cccc(-c2nc3ccccc3n2Cc2ccccc2)c1)NO` [3-(3-(1-benzyl-1H-benzo[d]imidazol-2-yl)phenyl)-N-hydroxyacrylamide], the IC50 is 50 nM.

Consider `O=C(/C=C/c1cccc(-c2nc3ccccc3n2CCc2ccccc2)c1)NO` [N-hydroxy-3-(3-(1-phenethyl-1H-benzo[d]imidazol-2-yl)phenyl)acrylamide], for which the IC50 was found to be 7.9 nM. For `Cc1nc(Cc2ccccc2)n(CCc2ccccc2)c1-c1cccc(/C=C/C(=O)NO)c1` [3-(3-(2-benzyl-4-methyl-1-phenethyl-1H-imidazol-5-yl)phenyl)-N-hydroxyacrylamide], the IC50 was 40 nM. With `Cc1c(Cc2ccccc2)nc(-c2cccc(/C=C/C(=O)NO)c2)n1CCN1CCOCC1` [3-(3-(4-benzyl-5-methyl-1-(2-morpholinoethyl)-1H-imidazol-2-yl)phenyl)-N-hydroxyacrylamide], the IC50 came to 12 nM. The result for `Cc1c(-c2ccccc2)nc(-c2cccc(/C=C/C(=O)NO)c2)n1[C@@H]1CCCN(C(C)C)C1` [(R)-N-hydroxy-3-(3-(1-(1-isopropylpiperidin-3-yl)-5-methyl-4-phenyl-1H-imidazol-2-yl)phenyl)acrylamide] reads 5 nM. The result for `CN(C)CCn1c(-c2cccc(/C=C/C(=O)NO)c2)nc2ccccc21` [3-(3-(1-(2-(dimethylamino)ethyl)-1H-benzo[d]imidazol-2-yl)phenyl)-N-hydroxyacrylamide] reads 63 nM.

With `Cc1nc(-c2cccc(/C=C/C(=O)NO)c2)n(CCc2ccccc2)c1C` [3-(3-(4,5-dimethyl-1-phenethyl-1H-imidazol-2-yl)phenyl)-N-hydroxyacrylamide], the IC50 worked out at 7.9 nM. For `CCN1CCC[C@@H](n2c(-c3cccc(/C=C/C(=O)NO)c3)nc3ccccc32)C1` [(R)-3-(3-(1-(1-ethylpiperidin-3-yl)-1H-benzo[d]imidazol-2-yl)phenyl)-N-hydroxyacrylamide] the value was 10 nM. The result for `CCN1CCC[C@@H](n2c(-c3cccc(/C=C/C(=O)NO)c3)nc(C)c2-c2ccccc2)C1` [(R)-3-(3-(1-(1-ethylpiperidin-3-yl)-4-methyl-5-phenyl-1H-imidazol-2-yl)phenyl)-N-hydroxyacrylamide] reads 7.9 nM.

The values are drawn from BindingDB's records for doi:10.1016/j.bmcl.2010.03.092 (Takeda California, 2010).
